± gives the expanded uncertainty stated by the source.
Key:
[1] = 100.2 kPa, Liquid, Pycnometric method
[2] = xn = mol fraction of the nth substance listed; settings: 100.2 kPa, Liquid, Pycnometric method

For `O` [water], the mass density ([1]; 298.2 K) was 1000 ± 2 kg/m3, the mass density ([1]; 303.2 K) was 996 ± 2 kg/m3 and the mass density ([1]; 308.2 K) was 993 ± 2 kg/m3. For the same compound, the mass density ([1]; 313.2 K) was 991 ± 2 kg/m3 and the mass density ([1]; 318.2 K) was 989 ± 2 kg/m3.

`CCCCCCCCCC(=O)OCCN1CCN(CCCN2c3ccccc3Sc3ccc(C(F)(F)F)cc32)CC1` + O showed a mass density ([2]; 298.2 K, x1 = 2.41e-07) of 1000 ± 5 kg/m3, a mass density ([2]; 303.2 K, x1 = 3.11e-07) of 996 ± 6 kg/m3 and a mass density ([2]; 308.2 K, x1 = 4.32e-07) of 993 ± 13 kg/m3. It also gave a mass density ([2]; 313.2 K, x1 = 5.86e-07) of 991 ± 2 kg/m3 and a mass density ([2]; 318.2 K, x1 = 6.93e-07) of 989 ± 2 kg/m3.

Reference: the NIST ThermoML archive (doi:10.1016/j.fluid.2014.01.044)
